In PubChem BioAssay (NCI):
Values joined by “and” are separate entries in the source; they are usually repeats but may differ in a detail not shown here. Equal entries are not always repeated.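 Tested at 5 concentrations; 48 h exposure; 96-well plates; endpoints linearly interpolated, else capped at highest concentration. At the GI50, growth is halved. TGI: total growth inhibition.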

Key:
Assay in all cases: NCI anticancer screen, dose series, 48 h
SK-MEL-2 melanoma = system: SK-MEL-2 melanoma
A549 NSCLC = system: A549 NSCLC
MOLT-4 leukemia = system: MOLT-4 leukemia
HOP-92 NSCLC = system: HOP-92 NSCLC
UACC-62 melanoma = system: UACC-62 melanoma
SW-620 colon = system: SW-620 colon
NCI/ADR-RES ovarian = system: NCI/ADR-RES ovarian
SK-MEL-28 melanoma = system: SK-MEL-28 melanoma
HOP-62 NSCLC = system: HOP-62 NSCLC
HT29 colon = system: HT29 colon

| Structure (SMILES) | TGI (SK-MEL-2 melanoma) [µM] | TGI (A549 NSCLC) [µM] | GI50 (MOLT-4 leukemia) [µM] | TGI (MOLT-4 leukemia) [µM] | TGI (HOP-92 NSCLC) [µM] | TGI (UACC-62 melanoma) [µM] | TGI (SW-620 colon) [µM] | TGI (NCI/ADR-RES ovarian) [µM] | TGI (SK-MEL-28 melanoma) [µM] | TGI (HOP-62 NSCLC) [µM] | GI50 (HT29 colon) [µM] | TGI (HT29 colon) |
| --- | --- | --- | --- | --- | --- | --- | --- | --- | --- | --- | --- | --- |
| COc1ccc2c(c1)/c(=C/c1ccc(N(C)C)cc1)c1cc(-c3ccccc3)[n+](C)n12 | 1.61 | 5.07 | 0.142 | 4.92 | 0.784 | 2.01 | 1.97 | > 100 | 2.31 | 2.71 | 0.0753 | 0.566 µM and 0.982 µM |
| CN(Cc1cnc2nc(N)nc(N)c2n1)c1ccc(C(=O)NC(CCC(=O)NC(P(=O)(O)O)P(=O)(O)O)C(=O)O)cc1 (configuration not stated) | > 100 | > 100 |  | > 100 | > 100 | > 100 | 28.3 | > 100 | > 100 | > 100 |  | > 100 µM |
| Cc1ccc(-c2n[nH]c(=O)[nH]2)cc1[N+](=O)[O-] | > 100 | > 100 |  | > 100 | > 100 | > 100 | > 100 | > 100 | > 100 | > 100 |  | > 100 µM |
| CC1(C)Oc2ccc(NC(=O)CCC(N)C(=O)O)cc2O1 (configuration not stated) | > 100 | > 100 |  | > 100 | > 100 | > 100 | > 100 | > 100 | > 100 | > 100 |  | > 100 µM |
| COc1cccc(-c2cc(=O)c3ccc(C)nc3[nH]2)c1 | > 100 | > 100 |  | > 94.7 | 3.85 | > 100 | > 100 | > 100 | > 100 | > 64.6 |  | > 100 µM |
| COc1ccc(OC)c2c1C1CCC(=O)N1CN2C(C)=O (configuration not stated) | > 100 | > 100 |  | > 100 | > 100 | > 100 | > 100 | > 100 | > 100 | > 100 |  | > 100 µM |
| Cc1c(NC2(C)C(=O)N(/N=C/c3ccccc3)N=C2c2ccccc2)n[nH]c1-c1ccccc1 (configuration not stated) | > 100 | > 100 |  | > 100 | > 100 | > 100 | > 100 | > 100 | > 100 | > 100 |  | > 100 µM |
| C/C(O)=C/c1nc2ccc([N+](=O)[O-])cc2nc1/C=C(/C)O | 96.8 | > 100 |  | 72.2 | 84.3 | > 100 | > 100 | > 100 | > 100 | > 100 |  | > 100 µM |
| COC(=O)C1(Cc2ccccc2)Cc2ccccc2C1 | 25.8 | > 100 |  | 41.8 | 46.3 | 75.6 | > 100 | 69.2 | > 100 | > 100 |  | 41.7 µM |
| Cn1c2ccccc2c2c3c(c4c5ccccc5n(C)c4c21)C(=O)c1ccccc1C3=O | > 100 | > 100 |  | > 100 | > 100 | > 100 | > 100 | > 100 | > 100 | > 100 |  | > 100 µM |
| Cn1cnc2c(sc3nc4ccccc4n32)c1=N | > 100 | > 100 |  | > 100 | > 100 | > 100 | > 100 | > 100 | > 100 | > 100 |  | > 100 µM |
| CC(=O)Oc1ccc(C2COc3cc(OC(C)=O)c(OC(C)=O)cc3C2)cc1 (configuration not stated) | 41.5 | 57.3 |  | 62 | 24.9 | 24.2 | 35.9 | 48.7 | 34.2 | 48 |  | > 81.5 µM |
| O=C(CNc1ccc(Cl)cc1Cl)NC1C=Cc2ccc(S(=O)(=O)Nc3ccc(Cl)cc3Cl)cc2C1=O (configuration not stated) | > 100 | > 100 |  | > 100 | > 100 | > 100 | > 100 | > 100 | > 100 | > 100 |  | > 100 µM |
| C=CC[C@@]1(C(=O)OC)[C@H](Sc2ccccc2)C1(C)C | 64.1 | > 100 |  | 34.3 | 76.4 | > 100 | > 100 | > 100 | > 100 | > 100 |  | > 100 µM |
| O=c1[nH]nc(Cc2ccccc2)n1-n1cnnc1 | > 100 | > 100 |  | > 100 | > 100 | > 100 | > 100 | > 100 | > 100 | > 100 |  | > 100 µM |
| O=C1c2cccc3cccc(c23)C(=O)N1CCCNOCCONCCCN1C(=O)c2cccc3cccc(c23)C1=O | > 100 | > 100 |  | > 100 | > 100 | > 100 | > 100 | > 100 | > 100 | > 100 |  | > 100 µM |
| C#CCn1c(=O)c(C#N)c(O)c2cc3ccccc3nc21 | > 100 | > 100 |  | > 100 | > 100 | > 100 | > 100 | > 100 | > 100 | > 100 |  | > 100 µM |
| CCc1c(C)c(C#N)c(=S)n(C2OC(CO)C(O)C(O)C2O)c1C (configuration not stated) | > 100 | > 100 |  | > 100 | > 100 | > 100 | > 100 | > 100 | > 100 | > 100 |  | > 100 µM |

| Structure (SMILES) | TGI (SK-MEL-2 melanoma) [µM] | TGI (A549 NSCLC) [µM] | GI50 (MOLT-4 leukemia) [µM] | TGI (MOLT-4 leukemia) [µM] | TGI (HOP-92 NSCLC) [µM] | TGI (UACC-62 melanoma) [µM] | TGI (SW-620 colon) [µM] | TGI (NCI/ADR-RES ovarian) [µM] | TGI (SK-MEL-28 melanoma) [µM] | TGI (HOP-62 NSCLC) [µM] | GI50 (HT29 colon) [µM] | TGI (HT29 colon) |
| --- | --- | --- | --- | --- | --- | --- | --- | --- | --- | --- | --- | --- |
| C=C(C)C1CC=C(C)C2(C1)OCC(C)(C)C(C)O2 (configuration not stated) | 34.2 | 34.5 |  | 51.2 | 23.6 | 30.4 | 43.2 | 37.5 | 63.9 | 31.8 |  | 33.2 µM |
| CC(=O)c1cc2c(s1)C(=O)c1ccccc1C2=O | 15.5 | 14.6 |  | 8.67 | 21.6 | 7.01 | 9.67 | 6.17 | 36.2 | > 100 |  | 21.4 µM |
| CN(C)CCCOCCn1c2c(c3ccccc31)CCCC2 | 26.5 | 31.8 |  | 30.6 | 46 | 31.1 | 37.5 | 35.2 | 30.2 | 28.3 |  | 28.5 µM |
| CCOC(=O)C(/C=N\C(=S)Nc1ccc(OCC)cc1)=C(/O)c1ccccc1 | > 100 | > 100 |  | > 100 | 67.8 | > 100 | > 100 | > 100 | > 100 | > 100 |  | > 100 µM |
| Cc1cc(=O)oc2cc(O)ccc12 | > 100 | > 100 |  | > 100 | > 100 | > 100 | > 100 | > 100 | > 100 | > 100 |  | > 100 µM |
| O=C(NCc1ccc(Cl)cc1)c1cc2sccc2nc1C(F)(F)F | > 100 | > 100 |  | > 100 | > 100 | > 100 | > 100 | > 100 | > 100 | 56.2 |  | > 100 µM |
| C[C@]12CC[C@@H]3c4ccc(OC(=O)c5ccccc5)cc4CC[C@H]3[C@@H]1CC[C@@H]2Oc1c2ccccc2nc2ccccc12 | > 50 | 13.2 |  | 26.7 | 36.9 | > 50 | > 50 | > 50 | 22.3 | 15.7 |  | 12.6 µM |
| Oc1ccc(CCc2cc(O)cc(O)c2)cc1 | > 100 | > 100 |  | > 100 | > 100 | > 100 | > 100 | > 100 | > 100 | > 100 |  | > 100 µM |
| NNc1nncn1N | > 100 | > 100 |  | > 100 | > 100 | > 100 | > 100 | > 100 | > 100 | > 100 |  | > 100 µM |
| [N-]=[N+]=Nc1ccc(CNc2cc(=O)[nH]c(=O)[nH]2)cc1 | > 100 | > 100 |  | > 100 | > 100 | > 100 | > 100 | > 100 | 99.6 | > 100 |  | > 100 µM |
| C[N+](C)(C)c1ncnc2c1ncn2C1CCCCO1 (configuration not stated) | > 100 | > 100 |  | > 100 | > 100 | > 100 | > 100 | > 100 | > 100 | > 100 |  | > 100 µM |
| CC1(COS(=O)(=O)OCC2(C)COS(=O)(=O)OC2)COS(=O)(=O)OC1 | > 100 | > 100 |  | > 81.5 | > 63.8 | > 100 | > 100 | > 100 | > 100 | > 100 |  | > 69.6 µM |
| COc1cc2c(cc1OC)-c1c3c(cc4c1[C@@H](C2)N(C)CC4)OCO3 | 22 | 32.2 |  | 12 | 32.4 | 20.2 | 30.3 | 30.2 | 24.9 | 20.7 |  | 28.8 µM |
| O=c1oc2ccc(Cl)cc2cc1-c1cn2cc(Cl)ccc2n1 | > 100 | > 87.8 |  | > 100 | > 100 | 15 | > 100 | > 85.9 | > 100 | > 100 |  | > 58.8 µM |
| Cn1nc(S(N)(=O)=O)s/c1=N/C(N)=S | > 100 | > 100 |  | > 100 | > 100 | > 100 | > 100 | > 100 | > 100 | > 100 |  | > 100 µM |
| COc1cc2c(/C=C3/C(=O)N(c4ccccc4)c4ccccc43)c(Cl)[nH]c2cc1C | 8.25 | > 38.4 |  | 9 | > 78.4 | 27.9 | > 100 | 6.49 | > 100 | > 23.6 |  | > 31 µM |
| CC(C)N(C)C(=O)C12C3C4C1C1C2C3C41C#N (configuration not stated) | > 100 | > 100 |  | > 100 | > 100 | > 100 | > 100 | > 100 | > 100 | > 100 |  | > 100 µM |
